This note sets out measurements from patent US11225477B2, “Inhibitors of influenza virus replication, application methods and uses thereof” (SUNSHINE LAKE PHARMA CO., LTD., priority 2015, dated 2022).

The conditions of data set [1]: SD, rat, in vivo; for F: po, 5 mg/kg.
Method: (§1) The compounds disclosed herein were administered in form of a saline solution containing 5% DMSO, 5% Kolliphor HS 15 and 90% Saline. […] Plasma samples were collected and stored at −20° C. or −70° C. until LC/MS/MS analysis.
In data set [2] the test system is virus H1N1 A/Weiss/43. The experiment in a line: microbe, parasite or virus in culture. The data set is classed as cell-based. The settings on record: Influenza A virus, 120 h; MDCK cells, H1N1 A/Weiss/43, Scheme 2: 8 concentrations 50 nM to 0.023 nM, 5 days, CCK-8.
Another data set is described as follows: in vivo. The settings on record: SD, rat.
Data set [3] concerns virus H1N1 A/Weiss/43. The experiment in a line: microbe, parasite or virus in culture. The conditions noted are these: Influenza A virus, 120 h; MDCK cells, H1N1 A/Weiss/43, Scheme 1: 8 concentrations 100 μM to 0.05 μM, 5 days, CCK-8. It counts as cell-based.

Method for in vivo: as §1

A word on the EC50: it is the concentration at which the effect is half-maximal. In general, AUC(0-inf) refers to the area under the concentration-time curve extrapolated to infinity. A low value points to low exposure. By AUC(0-t) is commonly meant the area under the concentration-time curve up to a stated or last time point. Read a low AUC(0-t) as less exposure. In general, Cmax refers to the maximum level reached in the sampled fluid or tissue. In general, Tmax refers to the time from dosing to the highest level. The term Vd denotes a proportionality between amount in the body and measured concentration, not a real space. Broadly, the half-life is how long it takes for the measured level to halve. High values mean slow loss, low ones fast loss. `O=C(O)C1C2CCC(CC2)C1Nc1cc(-c2ccco2)nc(-c2c[nH]c3ncc(F)cc23)n1` (racemic) [Example 9, (+/−)-trans-3-((2-(5-fluoro-1H-pyrrolo[2,3-b]pyridin-3-yl)-6-(furan-2-yl)pyrimidin-4-yl)amino)bicyclo[2.2.2]octane-2-carboxylic Acid] yielded a CL in data set [1] (iv, 1 mg/kg) of 97.7 mL/min/kg. The molecule further came in with a F in data set [1] of 47.5%. The EC50 with virus H1N1 A/Weiss/43 [2] stood at 0.066 nM. In “in vivo” (iv, 1 mg/kg), the AUC(0-inf) is 7350 ng·h/mL, the AUC(0-t) amounted to 7260 ng·h/mL, the concentration peaked (Cmax) at 10900 ng/mL and the Tmax was 4.98 min. In the data set “in vivo” (iv, 1 mg/kg), the Vd worked out at 0.551 L/kg and the half-life was 91.2 min. In addition, in the data set “in vivo” (po, 5 mg/kg), the AUC(0-inf) was determined as 17500 ng·h/mL, the AUC(0-t) was found to be 17400 ng·h/mL, the Cmax was determined as 5270 ng/mL and the Tmax is 30 min. Further, the half-life in “in vivo” (po, 5 mg/kg) was 189 min.
As usually defined, the clearance is the rate of elimination divided by the concentration. High values mean efficient removal, low ones inefficient removal. The molecule `O=C(O)C1C2CCC(CC2)C1Nc1cc(-c2ccccc2)nc(-c2c[nH]c3ncc(F)cc23)n1` (racemic) [Example 4, (+/−)-trans-3-((2-(5-fluoro-1H-pyrrolo[2,3-b]pyridin-3-yl)-6-phenylpyrimidin-4-yl)amino)bicyclo[2.2.2]octane-2-carboxylic Acid] showed a F in data set [1] of 56.4%. In the data set on virus H1N1 A/Weiss/43 [2], this molecule returned an EC50 of 0.2 nM. Further, in “in vivo” (iv, 1 mg/kg), the AUC(0-inf) amounted to 4610 ng·h/mL, the AUC(0-t) turned out to be 4540 ng·h/mL, the peak level (Cmax) was 5980 ng/mL and the Tmax worked out at 4.98 min. In “in vivo” (iv, 1 mg/kg), the Vd was found to be 0.412 L/kg, the clearance worked out at 3.66 mL/min/kg and the half-life was 163 min. In addition, in “in vivo” (po, 5 mg/kg), the AUC(0-inf) worked out at 12800 ng·h/mL, the AUC(0-t) amounted to 12800 ng·h/mL, the Cmax worked out at 3480 ng/mL and the Tmax stood at 40 min. In “in vivo” (po, 5 mg/kg), this molecule gave a half-life of 178 min. For the same molecule, the EC50 in the data set with virus H1N1 A/Weiss/43 [3] was less than 50 nM.
Take `O=C(O)C1C2CCC(CC2)C1Nc1cc(-c2cc3ccccc3s2)nc(-c2c[nH]c3ncc(F)cc23)n1` (racemic) [Example 17, (+/−)-trans-3-((6-(benzo[b]thiophen-2-yl)-2-(5-fluoro-1H-pyrrolo[2,3-b]pyridin-3-yl)pyrimidin-4-yl)amino)bicyclo[2.2.2]octane-2-carboxylic Acid]: the F in data set [1] is listed as 66.4%. This molecule also yielded an EC50 in the data set on virus H1N1 A/Weiss/43 [2] of 0.54 nM. For the same molecule, in the data set “in vivo” (iv, 1 mg/kg), the AUC(0-inf) stood at 2520 ng·h/mL, the AUC(0-t) was 2510 ng·h/mL, the Cmax worked out at 4420 ng/mL and the Tmax was 4.98 min. In the data set “in vivo” (iv, 1 mg/kg), the Vd worked out at 1.49 L/kg, the clearance is 6.62 mL/min/kg and the half-life was 67.2 min. In “in vivo” (po, 5 mg/kg), the AUC(0-inf) was determined as 8360 ng·h/mL, the AUC(0-t) is 8270 ng·h/mL, the concentration peaked (Cmax) at 2660 ng/mL and the Tmax came out at 30 min. In the data set “in vivo” (po, 5 mg/kg), this molecule had a half-life of 54.7 min.
Molecule `COc1ccc(-c2cc(NC3C4CCC(CC4)C3C(=O)O)nc(-c3c[nH]c4ncc(F)cc34)n2)cc1` (racemic) [Example 3, (+/−)-trans-3-((2-(5-fluoro-1H-pyrrolo[2,3-b]pyridin-3-yl)-6-(4-methoxyphenyl)pyrimidin-4-yl)amino)bicyclo[2.2.2]octane-2-carboxylic Acid] came in with an EC50 in the data set with virus H1N1 A/Weiss/43 [3] of less than 50 nM.
The molecule `Cn1ccc2c(NC3C4CCC(CC4)C3C(=O)O)nc(-c3c[nH]c4ncc(F)cc34)nc21` (racemic) [Example 65, (+/−)-trans-3-((2-(5-fluoro-1H-pyrrolo[2,3-b]pyridin-3-yl)-7-methyl-7H-pyrrolo[2,3-d]pyrimidin-4-yl)amino)bicyclo[2.2.2]octane-2-carboxylic Acid] showed a F in data set [1] of 44.9%. A half-maximal response with virus H1N1 A/Weiss/43 [2] (EC50) required 0.66 nM. Also, in “in vivo” (iv, 1 mg/kg), the AUC(0-inf) was determined as 5360 ng·h/mL, the exposure AUC(0-t) was determined as 5340 ng·h/mL, the Cmax worked out at 6830 ng/mL and the Tmax stood at 4.98 min. In the data set “in vivo” (iv, 1 mg/kg), the Vd was found to be 0.168 L/kg, the clearance was found to be 3.13 mL/min/kg and the half-life was 57.9 min. In addition, in the data set “in vivo” (po, 5 mg/kg), the AUC(0-inf) is 12100 ng·h/mL, the AUC(0-t) is 12000 ng·h/mL, the Cmax was 7940 ng/mL and the Tmax came out at 25 min. The half-life in the data set “in vivo” (po, 5 mg/kg) was 68.4 min.
In the data set on virus H1N1 A/Weiss/43 [3], `O=C(O)C1C2CCC(CC2)C1Nc1cc(-c2ccc(F)cc2)nc(-c2c[nH]c3ncc(F)cc23)n1` (racemic) [Example 6, (+/−)-trans-3-((2-(5-fluoro-1H-pyrrolo[2,3-b]pyridin-3-yl)-6-(4-fluorophenyl)pyrimidin-4-yl)amino)bicyclo[2.2.2]octane-2-carboxylic Acid] came in with an EC50 of less than 50 nM.
Molecule `O=C(O)C1C2CCC(CC2)C1Nc1nc(-c2c[nH]c3ncc(F)cc23)nc2c1CCCC2` (racemic) [Example 2, (+/−)-trans-3-((2-(5-fluoro-1H-pyrrolo[2,3-b]pyridin-3-yl)-5,6,7,8-tetrahydroquinazolin-4-yl)amino)bicyclo[2.2.2]octane-2-carboxylic Acid] registered a F in data set [1] of 47.1%. Besides, in the data set “in vivo” (iv, 1 mg/kg), the AUC(0-inf) was 3470 ng·h/mL, the AUC(0-t) was 3440 ng·h/mL, the Cmax worked out at 4910 ng/mL and the Tmax worked out at 4.98 min. Moreover, in the data set “in vivo” (iv, 1 mg/kg), the Vd amounted to 1.26 L/kg, the clearance is 4.9 mL/min/kg and the half-life is 63.6 min. In addition, in the data set “in vivo” (po, 5 mg/kg), the AUC(0-inf) came out at 8180 ng·h/mL, the AUC(0-t) amounted to 8080 ng·h/mL, the concentration peaked (Cmax) at 4020 ng/mL and the Tmax amounted to 25 min. The molecule further had a half-life in the data set “in vivo” (po, 5 mg/kg) of 79.8 min. In the data set with virus H1N1 A/Weiss/43 [3], this molecule came in with an EC50 of less than 50 nM.
In turn, `O=C(O)C1C2CCC(CC2)C1Nc1nc(-c2c[nH]c3ncc(F)cc23)nc2ccccc12` (racemic) [Example 1, (+/−)-trans-3-((2-(5-fluoro-1H-pyrrolo[2,3-b]pyridin-3-yl)quinazolin-4-yl)amino)bicyclo[2.2.2]octane-2-carboxylic Acid] had a F in data set [1] of 42.1%. For the same molecule, in “in vivo” (iv, 1 mg/kg), the AUC(0-inf) was found to be 5020 ng·h/mL, the AUC(0-t) was 4960 ng·h/mL, the Cmax worked out at 5900 ng/mL and the Tmax was 4.98 min. In “in vivo” (iv, 1 mg/kg), this molecule gave a Vd of 1.03 L/kg, a clearance of 3.42 mL/min/kg and a half-life of 67.8 min. In “in vivo” (po, 5 mg/kg), the AUC(0-inf) is 10600 ng·h/mL, the AUC(0-t) was 10100 ng·h/mL, the Cmax stood at 3130 ng/mL and the Tmax worked out at 50 min. The molecule further had a half-life in the data set “in vivo” (po, 5 mg/kg) of 88.8 min. Besides, the EC50 with virus H1N1 A/Weiss/43 [3] is less than 50 nM.
